We go through one compound from patent publication US20140228440A1, “1-AMINO-ALKYLCYCLOHEXANE DERIVATIVES FOR THE TREATMENT OF INFLAMMATORY SKIN DISEASES” (MERZ PHARMA GmbH & CO. KGaA, priority 2008, published 2014).

For assay [1], the system named is ear swelling response induced by croton oil. The assay can be described thus: Irritant dermatitis mouse model (croton oil). In kind it is in vivo, C57BL/6N male mice. As to conditions: i.p. 5 mg/kg 1 hr before, 3.2 mg/kg 1 hr and 3 hr after irritation; 7 hours and 24 hours. How it is done:
In order to further test for antiinflammatory properties, an irritant dermatitis mouse model is used. Induction of an ear swelling response by croton oil is a toxic reaction. This response is a concentration-dependent phenomenon, independent of sensitized lymphocytes.
20 μl of 1% croton oil in acetone is applied on the left ear. Ear swelling is measured after 7 hours and 24 hours. Ear swelling is quantified with a springloaded micrometer. […] An additional group is treated with neramexane (as described above) and croton oil.
Sensitization results are analyzed using student test (comparison between treatment and positive control).

Assay [2] has as its system DNFB-induced contact hypersensitivity (ear swelling response). The assay can be described thus: Contact hypersensitivity (CHS) mouse model. As to conditions: i.p. 5 mg/kg 1 hr before.
The subject of assay [3] is Streptococcus pyogenes ATCC 12344. The assay can be described thus: MIC by the agar dilution method. In kind it is cell-based. The note with it: pH 5.5, compared with Staphylococcus aureus. The protocol:
(§1) To assess the anti-microbial potency of Neramexane against bacteria strains which are relevant for atopic dermatitis and localized skin infections (“impetigo”), the minimal inhibitory concentration (MIC) against the following bacteria is established:
(§2) The MICs of the samples are determined using the agar dilution method based on DIN 58940. Petri dishes of 5.5 cm diameter are poured with 2.5 ml of freshly prepared Mueller-Hinton agar 2-fold concentrated (Merck company, Cat-No 1.05437), pH 5.5, maintained in liquid form at 50° C., to which the sample dilutions at various concentrations has been added at 50.0 vol.-%.
(§3) Neramexane-Mesylate is tested in the concentration range of 6.25-1*10^−2%. All test solutions are adjusted to pH 5.5.
(§4) For inoculation, 1 μl of the respective germ suspension is placed on the centre of each agar plate. After drying, inoculated plates are incubated at 36.0±2.0° C. The basis for the length of incubation period is the respective growth control cultivated in parallel.
(§5) The test microbe suspension is prepared by inoculating a few individual colonies of the respective bacteria into sterile saline solution until a turbidity corresponding to the McFarland standard 1.0 (approximately 10^8 cfu/ml) is reached. After that, the test microbe suspensions are further diluted 1:10 with saline solution and the microbial counts (see Table 33) are determined by the surface spread method using a spiral plater.
(§6) The agar plates are incubated under the conditions given in Table 34 and subsequently evaluated. The MIC-values as given represent the lowest concentration of the active substance at which there is no macroscopically visible growth. Minimal, barely visible growth or few small individual colonies are evaluated as inhibition.
(§7) The growth of bacteria is indicated for the duplicate plates by a +(i.e., growth) or a −(i.e., no growth), +− indicates weak growth on both plates or growth on one plate and no growth on the other plate. Both bacteria-strains show appropriate growth on the respective control plate not containing any test compound. No influence of the used diluent (Aqua purifacata) is observed. No contamination is observed on the control-plates. In general it has to be considered that values determined by the used method can vary by a factor of 2 (for 1:2 dilutions).
(In general: In agar dilution, organisms are placed on agar that contains the substance at set levels.)

The subject of assay [4] is Staphylococcus aureus ATCC 6538. The assay can be described thus: MIC by the agar dilution method. As to conditions: pH 5.5. In kind it is cell-based. How it is done: as §1, §2, §3, §4, §5, §6, §7
Assay [5] concerns Propionibacterium acnes. Nature of the assay: Log reduction assay. As to conditions: log reduction experiment. Format: cell-based. The protocol:
In order to determine the efficacy of Neramexane against a specific microorganism population (i.e., Propionibacterium acnes), a log reduction assay is performed. The organisms are prepared by inoculating the fluid thioglycolate (FTM). The microorganism is then incubated at 35.2±2.5° C. for 24 hours. The microbial suspension is adjusted to approximately 107 to 108 colony forming units (CFU) per mL and labeled as the stock suspension. […] Then […] is transferred into 11 mL of DI water to prepare a 3.125% solution. This solution is then inoculated with the microorganism and tested at time intervals of 30 seconds, 1 minute, and 5 minutes. One milliliter from each dilution is spread plated in duplicate onto tryptic soy agar with 5% sheep blood. The plates are incubated anaerobically at 35.2±2.5° C. for a minimum of 48 hours. The same procedure is repeated for the Phosphate Buffer Saline control. After the incubation period, all plates are counted to determine the number of microorganisms remaining at each time point. The concentration of each microorganism for the control and product is calculated for each interval. The log reduction is calculated to determine the change (reduction or increase) of the microorganism population relative to a starting inoculum. The minimum required bactericidal concentration is defined as a 3 log reduction from the initial inoculum.

Regarding `CC1(C)CC(C)(C)CC(C)(N)C1` [Neramexane, 1-amino-1,3,3,5,5-pentamethylcyclohexane], in assay [1], the “ear swelling response induced by croton oil” value is listed as “reduces the ear swelling response induced by croton oil to some degree”. Moreover, the ear swelling response result in assay [2] (3.2 mg/kg 1 hr and 3 hr after challenge, 24 hours after elicitation) is on record as “significantly reduces ear swelling response”. Further, the “induction of an immune response (sensitization)” value in assay [2] (3.2 mg/kg 1 hr and 3 hr after sensitization) is reported as “does not appear to have an impact on the induction of an immune response”. The antibacterial activity result is “acts even to greater extend against Streptococcus pyogenes” in assay [3], “exhibits antibacterial activity with respect to Staphylococcus aureus” in assay [4] and “exhibits antibacterial activity against Propionibacterium acnes” in assay [5].
